ChEMBL document CHEMBL3301472, “MMV Malaria Box HIV and cytotoxicity screening”

What was measured:
Type in all cases: toxicity, cell-based
[1] = MMV: MTT Cytotoxicity Assay Day 7 pi of Assay #10 (NO washout), U87-CD4-CCR5 cells, % cell death @ 5mM compound; details: human, u87-cd4-ccr5, 5000 µM
[2] = MMV: MTT Cytotoxicity Assay Day 3 pi, U87-CD4-CXCR4 cells, % cell death @ 5mM compound; details: human, u87-cd4-cxcr4, 5000 µM
[3] = MMV: MTT Cytotoxicity Assay Day 7 pi of Assay #6 (compound washed out Day 1 pi), U87-CD4-CCR5 cells, % cell death @ 5mM compound; details: human, u87-cd4-ccr5, 5000 µM
[4] = MMV: MTT Cytotoxicity Assay Day 7 pi of Assay #11 (NO washout), U87-CD4-CXCR4 cells, % cell death @ 5mM compound; details: human, u87-cd4-cxcr4, 5000 µM
[5] = MMV: MTT Cytotoxicity Assay Day 7 pi of Assay #7 (compound washed out Day 1 pi), U87-CD4-CXCR4 cells, % cell death @ 5mM compound; details: human, u87-cd4-cxcr4, 5000 µM
[6] = MMV: MTT Cytotoxicity Assay Day 3 pi, U87-CD4-CCR5 cells, % cell death @ 5mM compound; details: human, u87-cd4-ccr5, 5000 µM

COCCN(C(=O)Cc1cccs1)C(C(=O)NCc1ccc(OC)cc1)c1ccc(C(C)C)cc1 (centres undefined)
% Cell Death [1]: 140 | % Cell Death [2]: 12 | % Cell Death [3]: 16 | % Cell Death [4]: 68 | % Cell Death [5]: -10 | % Cell Death [6]: 13

CCC(O)c1ccc(Br)cc1NC(=O)c1cccc(Cl)c1 (centres undefined)
% Cell Death [1]: 6 | % Cell Death [2]: 11 | % Cell Death [3]: -24 | % Cell Death [4]: -37 | % Cell Death [5]: 28 | % Cell Death [6]: -44

Cc1ccc(Nc2nc(-c3ccccn3)cs2)cc1
% Cell Death [1]: 21 | % Cell Death [2]: 29 | % Cell Death [3]: 20 | % Cell Death [4]: 12 | % Cell Death [5]: -17 | % Cell Death [6]: 24

O=C(Nc1ccc(N2CCN(Cc3ccccc3)CC2)cc1)c1cccs1.O=C(O)C(F)(F)F
% Cell Death [1]: 124 | % Cell Death [2]: 55 | % Cell Death [3]: 4 | % Cell Death [4]: 28 | % Cell Death [5]: -26 | % Cell Death [6]: -2

COc1ccc(C(O)(CCC(C)C)C(CN2CCOCC2)c2ccc(Cl)cc2)cc1.Cl (centres undefined)
% Cell Death [1]: 102 | % Cell Death [2]: 55 | % Cell Death [3]: 48 | % Cell Death [4]: 47 | % Cell Death [5]: 4 | % Cell Death [6]: 72

COc1ccc(-c2cc(=O)oc3c4c(ccc23)OCN(Cc2ccc(F)cc2)C4)cc1
% Cell Death [1]: 29 | % Cell Death [2]: 21 | % Cell Death [3]: 16 | % Cell Death [4]: -26 | % Cell Death [5]: -9 | % Cell Death [6]: 20

CC(Oc1ccc(NC(=O)c2cccs2)cc1)C(=O)c1ccc(Cl)cc1 (centres undefined)
% Cell Death [1]: 2 | % Cell Death [2]: 1 | % Cell Death [3]: 40 | % Cell Death [4]: -5 | % Cell Death [5]: 60 | % Cell Death [6]: -10

Cc1cc(C=C2SC(=Nc3ccccc3)N(C3CCCC3)C2=O)c(C)n1-c1ccc(Cl)cc1
% Cell Death [1]: 140 | % Cell Death [2]: 65 | % Cell Death [3]: 8 | % Cell Death [4]: 90 | % Cell Death [5]: 36 | % Cell Death [6]: 96

CC(C)(C)c1ccc(O)c(CNC2CCCCC2)c1
% Cell Death [1]: 132 | % Cell Death [2]: 66 | % Cell Death [3]: 69 | % Cell Death [4]: 101 | % Cell Death [5]: 96 | % Cell Death [6]: 108

CCOc1cccc(C(=O)Nc2ccc(-c3nc4ccccc4[nH]3)cc2)c1
% Cell Death [1]: 6 | % Cell Death [2]: 46 | % Cell Death [3]: 8 | % Cell Death [4]: 65 | % Cell Death [5]: -23 | % Cell Death [6]: -33

Cl.N=c1n(CCN2CCCCC2)c2ccccc2n1CC(O)c1cccc(Br)c1 (centres undefined)
% Cell Death [1]: 11 | % Cell Death [2]: 27 | % Cell Death [3]: 10 | % Cell Death [4]: 8 | % Cell Death [5]: -20 | % Cell Death [6]: 2

COc1nc(Nc2ccc(C(C)C)cc2)nc(OC)n1
% Cell Death [1]: 33 | % Cell Death [2]: 32 | % Cell Death [3]: 33 | % Cell Death [4]: 24 | % Cell Death [5]: -7 | % Cell Death [6]: -1

COc1ccc(CNC2CCN(c3ccc(NC(=O)c4cccc(Cl)c4)cc3)CC2)cc1OC
% Cell Death [1]: 11 | % Cell Death [2]: -2 | % Cell Death [3]: 28 | % Cell Death [4]: -37 | % Cell Death [5]: -21 | % Cell Death [6]: -8

CCOc1c(Cl)cc(CNCC(O)c2ccccc2)cc1OC (centres undefined)
% Cell Death [1]: 2 | % Cell Death [2]: 21 | % Cell Death [3]: 20 | % Cell Death [4]: -40 | % Cell Death [5]: -17 | % Cell Death [6]: 14

COc1ccc(-c2cn3c(C(=O)Nc4ccccc4Cl)c(-c4ccccc4)c4c3n2CCCC4)cc1
% Cell Death [1]: 30 | % Cell Death [2]: 35 | % Cell Death [3]: -4 | % Cell Death [4]: -35 | % Cell Death [5]: -5 | % Cell Death [6]: -20

Cc1ccc(N2C(=O)C3C(C2=O)C2(c4ccccc4)C(=O)C3(c3ccccc3)C(c3ccccc3)=C2c2ccccc2)cc1 (centres undefined)
% Cell Death [1]: 33 | % Cell Death [2]: 36 | % Cell Death [3]: 0 | % Cell Death [4]: -35 | % Cell Death [5]: 5 | % Cell Death [6]: -31

O=C(Nc1ccc(Cl)c(Cl)c1)Nc1ccc(Cl)c(Cl)c1
% Cell Death [1]: 89 | % Cell Death [2]: 59 | % Cell Death [3]: 54 | % Cell Death [4]: 116 | % Cell Death [5]: 82 | % Cell Death [6]: 82

O=C(Nc1ccccc1O)c1ccc(-c2ccc(Cl)cc2Cl)o1
% Cell Death [1]: 11 | % Cell Death [2]: -23 | % Cell Death [3]: 34 | % Cell Death [4]: 64 | % Cell Death [5]: 66 | % Cell Death [6]: -37

Cl.c1ccc2c(NCCCCCCNc3c4c(nc5ccccc35)CCCC4)c3c(nc2c1)CCCC3
% Cell Death [1]: 34 | % Cell Death [2]: 32 | % Cell Death [3]: -1 | % Cell Death [4]: 9 | % Cell Death [5]: -18 | % Cell Death [6]: 12

COc1cccc(C(=O)NC(c2ccc(C)cc2)c2cc(Cl)c3cccnc3c2O)c1 (centres undefined)
% Cell Death [1]: 26 | % Cell Death [2]: 68 | % Cell Death [3]: 23 | % Cell Death [4]: -24 | % Cell Death [5]: -4 | % Cell Death [6]: 88

OC(CNC1CCCCC1)Cn1c2ccccc2c2ccccc21 (centres undefined)
% Cell Death [1]: 35 | % Cell Death [2]: 14 | % Cell Death [3]: 13 | % Cell Death [4]: -3 | % Cell Death [5]: -20 | % Cell Death [6]: -3

CCOc1ccc(Nc2ccnc3cc(Cl)ccc23)cc1
% Cell Death [1]: 72 | % Cell Death [2]: 78 | % Cell Death [3]: 20 | % Cell Death [4]: -19 | % Cell Death [5]: 47 | % Cell Death [6]: 35

CCCCNCC(O)(c1ccc(Cl)cc1)c1ccc(Cl)cc1
% Cell Death [1]: 11 | % Cell Death [2]: 29 | % Cell Death [3]: 23 | % Cell Death [4]: 27 | % Cell Death [5]: -18 | % Cell Death [6]: 16

Cc1cc(N2CCN(C3CCCC3)CC2)n2c(nc3ccccc32)c1C#N
% Cell Death [1]: 35 | % Cell Death [2]: 44 | % Cell Death [3]: 48 | % Cell Death [4]: -3 | % Cell Death [5]: -24 | % Cell Death [6]: 35

COc1ccc(C2c3ccc4ccccc4c3Oc3ncn(CCCn4ccnc4)c(=N)c32)cc1OC (centres undefined)
% Cell Death [1]: -6 | % Cell Death [2]: 38 | % Cell Death [3]: -22 | % Cell Death [4]: -30 | % Cell Death [5]: -25 | % Cell Death [6]: 39

COc1ccc(C=C2SC(=N)N(c3ccccc3OC)C2=O)cc1
% Cell Death [1]: 143 | % Cell Death [2]: 101 | % Cell Death [3]: 100 | % Cell Death [4]: 93 | % Cell Death [5]: 95 | % Cell Death [6]: 100

FC(F)(F)c1cccc(Nc2nc3ccccc3nc2Nc2cccc(C(F)(F)F)c2)c1
% Cell Death [1]: 25 | % Cell Death [2]: 15 | % Cell Death [3]: 15 | % Cell Death [4]: -12 | % Cell Death [5]: 3 | % Cell Death [6]: -15

N=c1c2ccccc2nnn1-c1cccc(C(F)(F)F)c1
% Cell Death [1]: 101 | % Cell Death [2]: 99 | % Cell Death [3]: 68 | % Cell Death [4]: 112 | % Cell Death [5]: 86 | % Cell Death [6]: 106

Cc1ccccc1OCCSc1nc2ccc(NC(=O)c3cccs3)cc2s1
% Cell Death [1]: 107 | % Cell Death [2]: 101 | % Cell Death [3]: 103 | % Cell Death [4]: 106 | % Cell Death [5]: 81 | % Cell Death [6]: 110

CCOC(=O)c1cnc2c(C)cc(C)cc2c1Nc1ccc(OC)c(OC)c1
% Cell Death [1]: 8 | % Cell Death [2]: 22 | % Cell Death [3]: 19 | % Cell Death [4]: -7 | % Cell Death [5]: 7 | % Cell Death [6]: 11

COc1ccc(Br)cc1C1Nc2ccc3ccccc3c2C2=C1C(=O)CC(c1ccccc1)C2 (centres undefined)
% Cell Death [1]: 16 | % Cell Death [2]: 28 | % Cell Death [3]: 30 | % Cell Death [4]: -37 | % Cell Death [5]: -14 | % Cell Death [6]: 17

COc1ccc2nc(C)cc(Nc3ccccc3O)c2c1
% Cell Death [1]: 6 | % Cell Death [2]: 30 | % Cell Death [3]: 14 | % Cell Death [4]: -34 | % Cell Death [5]: -12 | % Cell Death [6]: 5

CCN(CC)CCNc1ncnc2c1[nH]c1ccc(Cl)cc12
% Cell Death [1]: 5 | % Cell Death [2]: 30 | % Cell Death [3]: 1 | % Cell Death [4]: -1 | % Cell Death [5]: -31 | % Cell Death [6]: 15

Cc1c(C)n(Cc2ccc(F)cc2)c2ccc(C(=O)NCc3ccco3)cc12
% Cell Death [1]: 146 | % Cell Death [2]: 95 | % Cell Death [3]: 78 | % Cell Death [4]: 103 | % Cell Death [5]: 18 | % Cell Death [6]: 106

O=C(Nc1ccc(CN2CCOCC2)cc1)c1ccc(-c2cc(Cl)ccc2Cl)o1
% Cell Death [1]: 41 | % Cell Death [2]: 28 | % Cell Death [3]: -8 | % Cell Death [4]: 36 | % Cell Death [5]: -21 | % Cell Death [6]: -2

O=C(Nc1ccc(Cl)cc1C(=O)Nc1ccncc1)c1ccc(Cl)cc1Cl
% Cell Death [1]: 15 | % Cell Death [2]: 21 | % Cell Death [3]: 50 | % Cell Death [4]: 87 | % Cell Death [5]: 75 | % Cell Death [6]: 0

CN(C)CCCNCc1ccc(-c2ccc(F)c(Cl)c2)o1.Cl
% Cell Death [1]: 8 | % Cell Death [2]: 27 | % Cell Death [3]: 16 | % Cell Death [4]: -24 | % Cell Death [5]: -17 | % Cell Death [6]: 20

O=c1nc(C=Cc2ccc(Br)cc2)oc2ccccc12
% Cell Death [1]: 35 | % Cell Death [2]: 23 | % Cell Death [3]: -7 | % Cell Death [4]: -17 | % Cell Death [5]: 24 | % Cell Death [6]: 17

O=C(NCCCN1CCC(N2CCCCC2)CC1)C1=Cc2cc(Br)ccc2OC1
% Cell Death [1]: 14 | % Cell Death [2]: 10 | % Cell Death [3]: 31 | % Cell Death [4]: -57 | % Cell Death [5]: -28 | % Cell Death [6]: 52
